Some test systems named below: UO-31 renal; SK-MEL-28 melanoma; HOP-62 NSCLC; HOP-92 NSCLC; CCRF-CEM leukemia; TK-10 renal; NCI/ADR-RES ovarian; M14 melanoma; OVCAR-3 ovarian; RXF 393 renal.
Assay in all cases: NCI-60 cell line screen, 48 h

Our source for the GI50 and TGI values is PubChem BioAssay (NCI).

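Assay format: 96-well plates, 48-hour exposure. GI50 marks 50% less growth. TGI denotes the concentration required for complete inhibition of growth.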 Some results are limits rather than exact numbers.

Turning to `CC/C(Cc1ccccc1)=C(\c1ccc(OCCN2CCCC2)cc1)c1ccc(OC(=O)NCc2ccccc2)cc1`, the GI50 in the test on UO-31 renal was 1.61 µM; in the test with SK-MEL-28 melanoma it was 1.72 µM; with HOP-62 NSCLC it was 2.07 µM; in the test on HOP-92 NSCLC, 1.58 µM; in the test on CCRF-CEM leukemia, 2.83 µM; with TK-10 renal, 1.76 µM. Also, the GI50 in the test on NCI/ADR-RES ovarian was 2.66 µM; with M14 melanoma, 1.73 µM; in the test with OVCAR-3 ovarian it was 1.86 µM; in the test with RXF 393 renal, 1.77 µM. The TGI with UO-31 renal was 3 µM; in the test with SK-MEL-28 melanoma, 3.18 µM; in the test on HOP-62 NSCLC, 3.75 µM; in the test on HOP-92 NSCLC, 3.19 µM; in the test with CCRF-CEM leukemia it was 7.56 µM; in the test on TK-10 renal it was 3.5 µM. Moreover, the TGI is 10.3 µM in the test with NCI/ADR-RES ovarian, 3.31 µM in the test with M14 melanoma, 3.56 µM in the test on OVCAR-3 ovarian and 3.28 µM in the test with RXF 393 renal.

In the case of `COC(=O)Nc1nc2ccccc2[nH]1`, the TGI in the test on UO-31 renal, with SK-MEL-28 melanoma, in the test on HOP-62 NSCLC, with HOP-92 NSCLC, in the test with CCRF-CEM leukemia and in the test on TK-10 renal was above 100 µM throughout. In addition, the TGI with NCI/ADR-RES ovarian was 21 µM; with M14 melanoma, above 100 µM; in the test with OVCAR-3 ovarian it was 28.6 µM; in the test with RXF 393 renal, above 100 µM.

Turning to `Nc1nc2c(C(=O)NCc3cccs3)nnn2c2cccc(Cl)c12`, the TGI in the test on UO-31 renal was above 100 µM; in the test with SK-MEL-28 melanoma, above 100 µM; with HOP-62 NSCLC, above 100 µM; with HOP-92 NSCLC it was above 100 µM; in the test with CCRF-CEM leukemia, 55.6 µM; with TK-10 renal, above 100 µM. Further, the TGI in the test with NCI/ADR-RES ovarian, with M14 melanoma, in the test with OVCAR-3 ovarian and in the test with RXF 393 renal was above 100 µM in each case.

With `N#CC1=C(N)Oc2c(ccc3ccccc23)C1c1cc(=O)oc2ccc(Cl)cc12` (centres undefined), the GI50 in the test on UO-31 renal is 1.82 µM; in the test on SK-MEL-28 melanoma it was 10.6 µM; with HOP-62 NSCLC, 0.672 µM; in the test with HOP-92 NSCLC, 0.556 µM; with CCRF-CEM leukemia, 0.407 µM; with TK-10 renal, 16.9 µM. For the same molecule, the GI50 in the test with NCI/ADR-RES ovarian was 0.522 µM; in the test on M14 melanoma, 0.441 µM; in the test with OVCAR-3 ovarian it was 0.386 µM; in the test with RXF 393 renal it was 0.217 µM. Further, the TGI with UO-31 renal was above 100 µM; with SK-MEL-28 melanoma, 74.9 µM; with HOP-62 NSCLC, above 100 µM; with HOP-92 NSCLC, 42 µM; with CCRF-CEM leukemia it was 58.1 µM; in the test with TK-10 renal, 73.1 µM. Moreover, the TGI with NCI/ADR-RES ovarian was 36.8 µM; with M14 melanoma it was above 100 µM; in the test on OVCAR-3 ovarian, 12.3 µM; in the test on RXF 393 renal it was 1.93 µM.

Turning to `ClCc1ccccc1Cn1cnc2ncnc(Cl)c21`, the GI50 was 3.22 µM with UO-31 renal; 4.47 µM with SK-MEL-28 melanoma; 11.1 µM in the test on HOP-62 NSCLC; 4.38 µM in the test with HOP-92 NSCLC; 1.45 µM in the test on CCRF-CEM leukemia; 3.5 µM with TK-10 renal. Also, the GI50 in the test with NCI/ADR-RES ovarian is 2.1 µM; in the test on M14 melanoma, 1.92 µM; in the test on OVCAR-3 ovarian it was 2.06 µM; in the test with RXF 393 renal, 1.65 µM. For the same molecule, the TGI in the test on UO-31 renal was 10.7 µM; in the test on SK-MEL-28 melanoma it was 18.7 µM; with HOP-62 NSCLC it was 29 µM; in the test with HOP-92 NSCLC it was 12.8 µM; in the test with CCRF-CEM leukemia it was 3.53 µM; in the test on TK-10 renal it was 9.57 µM. In addition, the TGI was determined as 4.47 µM in the test on NCI/ADR-RES ovarian, 5.17 µM in the test with M14 melanoma, 4.16 µM in the test on OVCAR-3 ovarian and 6.5 µM with RXF 393 renal.

Consider `CC(C)N(Cc1ccc(CN(C(=O)CCl)C(C)C)cc1)C(=O)CCl`, for which the GI50 in the test with UO-31 renal was 1.76 µM; with SK-MEL-28 melanoma, 2.36 µM; with HOP-62 NSCLC it was 0.856 µM; in the test with HOP-92 NSCLC, 1.83 µM; in the test on CCRF-CEM leukemia it was 0.287 µM; in the test on TK-10 renal, 2.69 µM. The GI50 in the test with NCI/ADR-RES ovarian is 2.49 µM; in the test on M14 melanoma it was 1.86 µM; in the test on OVCAR-3 ovarian, 1.69 µM; in the test with RXF 393 renal, 1.33 µM. For the same molecule, the TGI worked out at 3.21 µM with UO-31 renal; 6.52 µM in the test with SK-MEL-28 melanoma; 2.37 µM with HOP-62 NSCLC; 3.56 µM with HOP-92 NSCLC; 0.865 µM in the test with CCRF-CEM leukemia; 6.64 µM in the test on TK-10 renal. Further, the TGI in the test with NCI/ADR-RES ovarian was 7.73 µM; with M14 melanoma, 7.12 µM; in the test on OVCAR-3 ovarian, 3.22 µM; in the test with RXF 393 renal, 2.85 µM.

Take `COc1ccccc1S(=O)(=O)Nc1ccc2c3c(cc(CCC(=O)NCCCCNc4cccc5c4C(=O)N(C4CCC(=O)NC4=O)C5=O)cc13)C(=O)N2C` (centres undefined): the GI50 with UO-31 renal is 2.4 µM; with SK-MEL-28 melanoma, 1.08 µM; in the test with HOP-62 NSCLC, 0.416 µM; in the test on HOP-92 NSCLC it was 0.0318 µM; in the test on CCRF-CEM leukemia, 0.0315 µM; in the test on TK-10 renal it was above 29.9 µM. The GI50 was above 100 µM with NCI/ADR-RES ovarian, 1.11 µM in the test on M14 melanoma, 2.21 µM in the test with OVCAR-3 ovarian and 0.862 µM in the test on RXF 393 renal. The TGI in the test with UO-31 renal is above 100 µM; in the test on SK-MEL-28 melanoma, above 100 µM; in the test on HOP-62 NSCLC, 4.94 µM; in the test on HOP-92 NSCLC it was 0.515 µM; with TK-10 renal, above 100 µM; in the test on NCI/ADR-RES ovarian it was above 100 µM. In addition, the TGI in the test with M14 melanoma was above 100 µM; in the test with OVCAR-3 ovarian, above 100 µM; in the test on RXF 393 renal, 4.5 µM.

As to `CN=C1C=CC(=C(c2ccc(N(C)C)cc2)c2ccc(N(C)C)cc2)C=C1`, the GI50 with UO-31 renal is 0.317 µM; with SK-MEL-28 melanoma it was 0.482 µM; with HOP-62 NSCLC, 0.0765 µM; with HOP-92 NSCLC it was 0.205 µM; with CCRF-CEM leukemia, 0.256 µM; with TK-10 renal, 0.218 µM. Also, the GI50 was 1.5 µM in the test with NCI/ADR-RES ovarian, 0.28 µM with M14 melanoma, 0.295 µM with OVCAR-3 ovarian and 0.207 µM with RXF 393 renal. For the same molecule, the TGI in the test on UO-31 renal amounted to 1.21 µM; with SK-MEL-28 melanoma, 2.07 µM; with HOP-62 NSCLC, 1.48 µM; in the test with HOP-92 NSCLC it was 0.633 µM; with CCRF-CEM leukemia, 7.57 µM; with TK-10 renal it was 1.14 µM. For the same molecule, the TGI in the test with NCI/ADR-RES ovarian was determined as 4.83 µM; in the test with M14 melanoma it was 1.08 µM; in the test on OVCAR-3 ovarian it was 0.936 µM; in the test with RXF 393 renal, 0.583 µM.
